“And” between values parts separate entries of the source, which are not always exact repeats. Identical values can stand only once. Like-named read-outs stand apart in the source and are kept apart here.
How the values were obtained:
[1] = system: Mycobacterium smegmatis (M. smeg); experiment: Growth inhibition of M. smeg (MIC/IC50 measurement); type: cell-based, Mycobacterium smegmatis mc^2 155; conditions: Mycolicibacterium smegmatis; M. smeg in 7H9 media, 24 h at 37° C., OD600; mean and SD of triplicate
Method: Cell Culture and Growth Conditions. M. smeg was cultured in Middlebrook 7H9 medium (Ref. no. 271310; Difco) supplemented with 10% OAD (oleic acid, albumin, dextrose), 0.2% (v/v) glycerol, and […], and incubated with shaking for 24 h at 37° C. M. smeg was grown to a mid-logarithmic growth phase assessed via spectrophotometry and occurred at an optical density of 0.6 at 600 nm (OD600). In some experiments where M. smeg was treated with vanadium complexes, the cell culture supernatant was collected for ^51V NMR studies.
Minimum Inhibitory Concentration (MIC) Measurements. The inhibitory activity of the tested compounds was determined by measuring the lowest concentration that caused bacterial growth inhibition of 50% (IC50). M. smeg was grown to the mid-log phase of 0.6-0.8 at OD600. The final concentrations of the compounds used in these studies were obtained using serial dilutions to a final concentration range of 2 to 0.0039 mM and placed with M. smeg in 7H9 media into a 96-well plate. Plates were incubated for 24 h at 37° C. A Bio-Rad Benchmark Reader (Bio-Rad Laboratories: Hercules, CA, USA) was used to check the cell viability at OD600 at appropriate times. IC50 was determined to be the lowest concentration of complexes that inhibited M. smeg growth by 50%.
Statistical Analysis. For each treatment, data were represented as the mean and standard deviation of the IC50 from triplicate measurements. The IC50 was calculated using GraFit 5 data analysis software (version 5.0.13). • Chemistry
Preparation of Stock Solutions for Cell Culture Experiments. A 20 mM stock solution of each respective V-complex and its free ligands was prepared in DMSO and diluted with 7H9 media to a concentration of 2.0 mM for biological studies.

[2] = system: T98 g cells (human glioblastoma multiforme); experiment: IC50 for 72 h treatments with fresh vanadium(V) compounds in T98 g cells (Example 7); type: cell-based; conditions: 72 h treatment, each measurement reported, read-out: IC50 Value(s) (converted)
Method: (§1) Cell Culture and Growth Conditions. The well-established human glioblastoma multiforme cell line (T98 g) and human foreskin fibroblast (HFF-1) cell lines were purchased from American Type Culture Collection (ATCC, cat. no. CRL-1690 and SCRC-1041). Due to their limited life span in culture, HFF-1 cells were used at passages four to six. The cells were cultured in Advanced DMEM (Thermo Fisher Scientific cat. no. 12491-015), supplemented with L-glutamine (2.0 mM), antibiotic-antimycotic mixture (100 U mL^−1 penicillin, […] streptomycin, and […] amphotericin B), and fetal calf serum (FCS; heat-inactivated; 2% vol). For proliferation and cytotoxicity experiments, cells were seeded in 96-well plates at an initial density of 1.5×10^3 viable cells per well in 100 μL medium and left to attach overnight.
(§2) Freshly prepared stock solutions of V(V) complexes (10 mM in DMSO) were used for cell assays. […] Stock solutions of the treatment complexes were diluted with fully supplemented cell culture media to the required final concentrations, and the resultant media were either added to the cells within 1 min (fresh solutions) or left in cell culture incubator (310 K, 5% CO2) for 24 h prior to the cell treatments (aged solutions).
(§3) Each treatment included six replicate wells with cells and two background wells without cells that contained the same components. After the addition of treatment complexes, the plates were incubated for 72 h at 310 K and 5% CO2, then MTT reagent [1-(4,5-dimethylthiazol-2-yl)-3,5-diphenylformazan, Sigma M5655] was added (50 μL per well of freshly prepared 2.0 mg/mL solution in complete medium), and incubation was continued for 4-6 h. After that, the medium was removed, the blue formazan crystals were dissolved in 0.10 mL per well of DMSO, and the absorbance at 600 nm was measured using a Victor V3 plate reader. Typically, the treatment complexes were applied in a series of nine two-fold dilutions, starting from (100±20) M V, plus the vehicle control. Exact V concentrations in the assays were verified by ICP-MS measurements using samples of cell culture media and used in the calculations of the IC50 values. Fitting of the experimental data and calculations of the IC50 values were performed using Origin 6.1 software (Microcal Origin, 1999). For all the cell assays, consistent results were obtained in at least two independent experiments using different passages of cells and varying stock solutions of the treatment complexes.
In cases where multiple measurements were performed, the value determined for each measurement are reported.

[3] = system: HFF-1 (human foreskin fibroblasts); experiment: Cytotoxicity, MTT assay, HFF-1 cells (Example 4); type: cell-based; conditions: 72 h treatment; mixed with medium ~1 min before treatment; read-out: IC50 HFF-1 (fresh)
Method: as §1, with “µL” for “μL”
Freshly prepared stock solutions of V(V) complexes (10 mM in DMSO) were used for cell assays. […]
Each treatment included six replicate wells with cells and two background wells without cells that contained the same components. […] After that, the medium was removed, the blue formazan crystals were dissolved in 0.10 mL per well of DMSO, and the absorbance at 600 nm was measured using a Victor V3 plate reader. […]

[4] = system: T98g cells (human glioblastoma multiforme); experiment: Antiproliferative activity, MTT assay, T98g cells (Example 4); type: cell-based; conditions: 72 h treatment
Method: as §1, with “µL” for “μL”
as §2
as §3, with “(100±20) μM” for “(100±20) M”

[5] = system: T98g (human glioblastoma cells); experiment: Anti-proliferative activity, MTT assay, T98g cells (Example 5); type: cell-based; conditions: read-out: IC50 (T98g), condition (B)
[6] = system: HFF-1 (non-cancer human fibroblasts); experiment: Anti-proliferative activity, MTT assay, HFF-1 cells (Example 5)
T98g cells = experiment: V uptake by T98g cells (ICPMS); type: cell-based, human; conditions: 30 min treatment with 100 μM of freshly diluted V complexes
Method: For V uptake experiments, T98 g cells were grown to ˜80% confluence in 12-well plates (three replicates per treatment). […] After that, V-containing media were removed, the cell layers were washed twice with phosphate buffered saline (PBS), detached with TrypLE solution (Thermo Fisher Scientific Cat. No. 12605028), pelleted, and washed again with PBS. Detachment and washing of cell pellets were used to remove V that was absorbed on the culture plates and on the cell surface. Cell numbers in each pellet were counted with a Countess automatic counter, typical numbers were (5±1)×10^5 cells/well, cell viability was >95% (Trypan blue staining). Cell pellets were digested with 0.20 mL of 65% HNO3 (trace pure, Merck 225711) for 3 d at 295 K, then diluted with Milli-Q water to 1.0 mL for ICPMS analysis. The analysis was performed with a Perkin-Elmer Nexion 350× spectrometer, using a standard V(IV) solution (Choice Analytical, Australia) and 193Ir peak as an internal standard. The measurements were performed in kinetic energy discrimination (KED) mode to eliminate the interference of [^35Cl^16O]^+ ions with the determination of ^51V^+. Cellular V concentrations were expressed in atoms V per cell. For all the cell assays, consistent results were obtained in at least two independent experiments, using different passages of cells and different stock solutions of the treatment compounds.

[7] = complexes mixed with cell culture medium ~1 min (295K) before treatment, read-out: IC50 T98g (fresh)
[8] = pre-incubated with cell culture medium 24 h at 310K, 5% CO2, read-out: IC50 T98g (aged)

SMILES | IC50 [1] [µM] | IC50 [2] | also measured
Oc1c(O)c(Br)c(Br)c(Br)c1Br [H2tbc, tetrabromocatechol] | 416 ± 0.19 | – | –
COc1cccc(O)c1O [H23OMet, 3-methoxy catechol] | 262 ± 0.15 | – | –
CC(C)(C)c1cc2c(c(C34CC5CC(CC(C5)C3)C4)c1)[O][V]1(=[O])([O]c3ccc(Cl)cc3C=NCC[N]1CCO)[O]2 | – | 3.4 ± 0.2 µM | –
CCOc1cccc2c1[O][V]1(=[O])([O]c3cc(C45CC6CC(CC(C6)C4)C5)cc(C(C)(C)C)c3[O]1)[N](CCO)CCN=C2 | – | 2.1 ± 0.3 µM | –
N.N.[Cl][Pt][Cl] [cisplatin] | – | – | IC50 [3]: 45 ± 4 µM; IC50 [4, 7]: 33 ± 1 µM; IC50 [4, 8]: > 50 µM
CCOc1cccc2c1[O][V]1(=[O])([O]c3cc(C45CC6CC(CC(C6)C4)C5)cc(C)c3[O]1)[N](CCO)CCN=C2 | – | 14 ± 2 µM | –
CC(C)(C)c1cc(O)c(O)c(C(C)(C)C)c1 [H2dtb, 3,5-di-tert-butylcatechol] | 241 ± 0.07 | – | IC50 [5]: 15 ± 3 µM; IC50 ([6]; Homo sapiens, HFF-1, read-out: IC50 (HFF-1), condition (B)): 24 ± 2 µM
Oc1ccccc1O [H2cat, catechol] | 109 ± 0.05 | – | –
CC(C)(C)c1cc2c(c(C34CC5CC(CC(C5)C3)C4)c1)[O][V]1(=[O])([O]c3ccccc3C=NCC[N]1CCO)[O]2 | – | 9.3 ± 2.1 µM | –
[O]=[V]12([O]c3ccc(Cl)cc3C=NCC[N]1CCO)[O]c1cc(C34CC5CC(CC(C5)C3)C4)cc(C34CC5CC(CC(C5)C3)C4)c1[O]2 | – | 11 ± 1 µM | –
O=c1ccc2cc(O)c(O)cc2o1 [H2Coum, 6,7-dihydroxycoumarin] | 506 ± 0.28 | – | –
O=[N+]([O-])c1ccc(O)c(O)c1 [H24NO2, 4-nitrocatechol] | 610 ± 0.05 | – | –
N#Cc1ccc(O)c(O)c1 [H2CN, 3,4-dihydroxybenzonitrile] | 447 ± 0.04 | – | –
CC(C)(C)c1cccc2c1[O][V]1(=[O])([O]c3cc(C45CC6CC(CC(C6)C4)C5)cc(C45CC6CC(CC(C6)C4)C5)c3[O]1)[N](CCO)CCN=C2 | – | 5.3 ± 1.6 µM | –
CCOc1cccc2c1[O][V]1(=[O])([O]c3cc(C(C)(C)C)cc(C(C)(C)C)c3[O]1)[N](CCO)CCN=C2 | – | 2.4 ± 0.3 µM | –
CC(C)(C)c1cc2c(c(C(C)(C)C)c1)[O][V]1(=[O])([O]c3cc4ccc(=O)oc4cc3[O]1)[N](CCO)CCN=C2 | – | 4.2 µM and 6.9 µM | –
[Na+].[Na+].[Na+].[O]=[V]([O-])([O-])[O-] [Na3VO4] | – | – | Uptake (T98g) of V (T98g cells): (3.3 ± 0.8) × 10^7 atoms per cell; viability of HFF-1 cells compared with the vehicle control ([6]; subtoxic concentrations, not seen in T98g): 120-140%; IC50 [3]: 23 ± 3 µM; IC50 [4, 7]: ~40 µM and 26 µM; IC50 [4, 8]: 24 ± 4 µM
CCOc1cccc2c1[O][V]1(=[O])([O]c3cc(C45CC6CC(CC(C6)C4)C5)cc(C45CC6CC(CC(C6)C4)C5)c3[O]1)[N](CCO)CCN=C2 | – | 3.3 ± 0.4 µM | –
